# Tested on: 415267-285-R-J2-PDC complex spheroid viability
# Assay: Anticancer human tumor 415267-285-R-J2-PDC patient-derived breast carcinoma cell line growth inhibition [POLQ]
# Conditions: for IC50: curve of first compound; for viability, T/C: stronger effect = lower value
# Summary of the method: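 Growth inhibition in 3D: complex spheroids (tumor PDC, HUVEC, MSC) treated with POLQ inhibitor combinations; where Cmax unknown, highest tested concentration 10 microM, except SN-38 at 1 microM.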
# [1] = second compound 0.0316 µM, first compound 0.0316 µM
# [2] = second compound 0.0316 µM, first compound 0.1 µM
# [3] = second compound 0.0316 µM, first compound 0.316 µM
# [4] = second compound 0.0316 µM, first compound 1 µM
# [5] = second compound 0.0316 µM, first compound 3.16 µM
# [6] = second compound 0.0316 µM, first compound 10 µM
# [7] = second compound 0.1 µM, first compound 0.0316 µM
# [8] = second compound 0.1 µM, first compound 0.1 µM
# [9] = second compound 0.1 µM, first compound 0.316 µM
# [10] = second compound 0.1 µM, first compound 1 µM
# [11] = second compound 0.1 µM, first compound 3.16 µM
# [12] = second compound 0.1 µM, first compound 10 µM
# [13] = second compound 0.316 µM, first compound 0.0316 µM
# [14] = second compound 0.316 µM, first compound 0.1 µM
# [15] = second compound 0.316 µM, first compound 0.316 µM
# [16] = second compound 0.316 µM, first compound 1 µM
# [17] = second compound 0.316 µM, first compound 3.16 µM
# [18] = second compound 0.316 µM, first compound 10 µM
# [19] = second compound 1 µM, first compound 0.0316 µM
# [20] = second compound 1 µM, first compound 0.1 µM
# [21] = second compound 1 µM, first compound 0.316 µM
# [22] = second compound 1 µM, first compound 1 µM
# [23] = second compound 1 µM, first compound 3.16 µM
# [24] = second compound 1 µM, first compound 10 µM
# [25] = second compound 3.16 µM, first compound 0.0316 µM
# [26] = second compound 3.16 µM, first compound 0.1 µM
# [27] = second compound 3.16 µM, first compound 0.316 µM
# [28] = second compound 3.16 µM, first compound 1 µM
# [29] = second compound 3.16 µM, first compound 3.16 µM
# [30] = second compound 3.16 µM, first compound 10 µM
# [31] = second compound 10 µM, first compound 0.0316 µM
# [32] = second compound 10 µM, first compound 0.1 µM
# [33] = second compound 10 µM, first compound 0.316 µM
# [34] = second compound 10 µM, first compound 1 µM
# [35] = second compound 10 µM, first compound 3.16 µM
# [36] = second compound 10 µM, first compound 10 µM
# 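Further: spheroids exposed to compounds for one week before readout.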
# 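Wherever viability, T/C is given: luminescence used as stand-in measure of viable cells; 100% = DMSO vehicle control viability.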
smiles,measurement,setting,value
CC1COCCN1c1cc(-c2ccnn2C)c2ccnc(-c3ccn[nH]3)c2n1 (stereo not given) + COC1C(OC(N)=O)C(O)C(Oc2ccc3c(O)c(NC(=O)c4ccc(O)c(CC=C(C)C)c4)c(=O)oc3c2C)OC1(C)C,IC50,second compound 0.0316 µM,< 31.6 nM
same,IC50,second compound 0.1 µM,36.3 nM
same,IC50,second compound 0.316 µM,< 31.6 nM
same,IC50,second compound 1 µM,39 nM
same,IC50,second compound 3.16 µM,35.4 nM
same,IC50,second compound 10 µM,41.2 nM
same,"viability, T/C",[1],47%
same,"viability, T/C",[2],12.6%
same,"viability, T/C",[3],6.23%
same,"viability, T/C",[4],5.27%
same,"viability, T/C",[5],4.48%
same,"viability, T/C",[6],3.41%
same,"viability, T/C",[7],55.3%
same,"viability, T/C",[8],11.5%
same,"viability, T/C",[9],6.16%
same,"viability, T/C",[10],3.96%
same,"viability, T/C",[11],4.03%
same,"viability, T/C",[12],4.38%
same,"viability, T/C",[13],48.4%
same,"viability, T/C",[14],11.8%
same,"viability, T/C",[15],5.97%
same,"viability, T/C",[16],5.08%
same,"viability, T/C",[17],4.16%
same,"viability, T/C",[18],5.11%
same,"viability, T/C",[19],58.5%
same,"viability, T/C",[20],11.5%
same,"viability, T/C",[21],5.09%
same,"viability, T/C",[22],6.05%
same,"viability, T/C",[23],4.42%
same,"viability, T/C",[24],4.44%
same,"viability, T/C",[25],53.9%
same,"viability, T/C",[26],15.8%
same,"viability, T/C",[27],7.15%
same,"viability, T/C",[28],5.85%
same,"viability, T/C",[29],4.13%
same,"viability, T/C",[30],4.16%
same,"viability, T/C",[31],61.3%
same,"viability, T/C",[32],12.8%
same,"viability, T/C",[33],6.51%
same,"viability, T/C",[34],4.55%
same,"viability, T/C",[35],4.33%
same,"viability, T/C",[36],4.73%
COc1cc(C2c3cc4c(cc3C(OC3OC5COC(C)OC5C(O)C3O)C3COC(=O)C23)OCO4)cc(OC)c1O (stereo not given) + Cc1cccc(N(C)C(=O)C2C(O)CCN2c2nc(C)cc(C(F)(F)F)c2C#N)c1,IC50,second compound 0.0316 µM,136 nM
same,IC50,second compound 0.1 µM,126 nM
same,IC50,second compound 0.316 µM,107 nM
same,IC50,second compound 1 µM,125 nM
same,IC50,second compound 3.16 µM,103 nM
same,IC50,second compound 10 µM,89.9 nM
same,"viability, T/C",[1],96%
same,"viability, T/C",[2],64.5%
same,"viability, T/C",[3],10.3%
same,"viability, T/C",[4],6.03%
same,"viability, T/C",[5],5.96%
same,"viability, T/C",[6],6.13%
same,"viability, T/C",[7],83.3%
same,"viability, T/C",[8],58.7%
same,"viability, T/C",[9],15%
same,"viability, T/C",[10],5.93%
same,"viability, T/C",[11],6.54%
same,"viability, T/C",[12],7.34%
same,"viability, T/C",[13],96.4%
same,"viability, T/C",[14],52.3%
same,"viability, T/C",[15],14.2%
same,"viability, T/C",[16],7.66%
same,"viability, T/C",[17],5.87%
same,"viability, T/C",[18],5.74%
same,"viability, T/C",[19],91.3%
same,"viability, T/C",[20],58.8%
same,"viability, T/C",[21],13.1%
same,"viability, T/C",[22],6.58%
same,"viability, T/C",[23],4.68%
same,"viability, T/C",[24],6.56%
same,"viability, T/C",[25],93.7%
same,"viability, T/C",[26],50.9%
same,"viability, T/C",[27],10.1%
same,"viability, T/C",[28],7.37%
same,"viability, T/C",[29],5.2%
same,"viability, T/C",[30],6.34%
same,"viability, T/C",[31],79.7%
same,"viability, T/C",[32],47%
same,"viability, T/C",[33],11%
same,"viability, T/C",[34],7.78%
same,"viability, T/C",[35],5.72%
same,"viability, T/C",[36],5.96%
CC1COCCN1c1cc(-c2ccnn2C)c2ccnc(-c3ccn[nH]3)c2n1 (stereo not given) + Cc1cccc(N(C)C(=O)C2C(O)CCN2c2nc(C)cc(C(F)(F)F)c2C#N)c1,IC50,second compound 0.0316 µM,< 31.6 nM
same,IC50,second compound 0.1 µM,< 31.6 nM
same,IC50,second compound 0.316 µM,< 31.6 nM
same,IC50,second compound 1 µM,33.9 nM
same,IC50,second compound 3.16 µM,33.6 nM
same,IC50,second compound 10 µM,35.9 nM
same,"viability, T/C",[1],44%
same,"viability, T/C",[2],17.2%
same,"viability, T/C",[3],6.77%
same,"viability, T/C",[4],4.72%
same,"viability, T/C",[5],4.84%
same,"viability, T/C",[6],4.51%
same,"viability, T/C",[7],41.2%
same,"viability, T/C",[8],11.3%
same,"viability, T/C",[9],6.11%
same,"viability, T/C",[10],4.5%
same,"viability, T/C",[11],4.14%
same,"viability, T/C",[12],5.26%
same,"viability, T/C",[13],47.2%
same,"viability, T/C",[14],13.3%
same,"viability, T/C",[15],5.28%
same,"viability, T/C",[16],4.19%
same,"viability, T/C",[17],4.21%
same,"viability, T/C",[18],4.67%
same,"viability, T/C",[19],52.6%
same,"viability, T/C",[20],10.9%
same,"viability, T/C",[21],6.08%
same,"viability, T/C",[22],4.95%
same,"viability, T/C",[23],4.35%
same,"viability, T/C",[24],4.81%
same,"viability, T/C",[25],52.2%
same,"viability, T/C",[26],10.7%
same,"viability, T/C",[27],5.26%
same,"viability, T/C",[28],4.41%
same,"viability, T/C",[29],4.33%
same,"viability, T/C",[30],4.61%
same,"viability, T/C",[31],53.4%
same,"viability, T/C",[32],22.9%
same,"viability, T/C",[33],5.93%
same,"viability, T/C",[34],4.73%
same,"viability, T/C",[35],5.68%
same,"viability, T/C",[36],4.55%
CCc1cc2c(N3CCc4c(cc(Cn5ccnc5)cc4-c4cn(C)nc4C(F)(F)F)C3=O)cc(C)nc2c(OC)n1 + Nc1ccc(C#CCN(C(=O)Cc2ncc(C(F)(F)F)cc2C(F)(F)F)c2ccc(F)cc2)nn1,IC50,second compound 0.0316 µM,> 10000 nM
same,IC50,second compound 0.1 µM,> 10000 nM
same,IC50,second compound 0.316 µM,> 10000 nM
same,IC50,second compound 1 µM,> 10000 nM
same,IC50,second compound 3.16 µM,> 10000 nM
same,IC50,second compound 10 µM,> 10000 nM
same,"viability, T/C",[1],91.4%
same,"viability, T/C",[2],91.6%
same,"viability, T/C",[3],88.7%
same,"viability, T/C",[4],85.9%
same,"viability, T/C",[5],82.5%
same,"viability, T/C",[6],66.7%
same,"viability, T/C",[7],99.5%
same,"viability, T/C",[8],87.1%
same,"viability, T/C",[9],80.8%
same,"viability, T/C",[10],94.8%
same,"viability, T/C",[11],88.1%
same,"viability, T/C",[12],66.8%
same,"viability, T/C",[13],91.7%
same,"viability, T/C",[14],88.8%
same,"viability, T/C",[15],98.4%
same,"viability, T/C",[16],93.2%
same,"viability, T/C",[17],80%
same,"viability, T/C",[18],68.1%
same,"viability, T/C",[19],86%
same,"viability, T/C",[20],94.7%
same,"viability, T/C",[21],101%
same,"viability, T/C",[22],94.9%
same,"viability, T/C",[23],84%
same,"viability, T/C",[24],64.1%
same,"viability, T/C",[25],97.6%
same,"viability, T/C",[26],87.9%
same,"viability, T/C",[27],86.5%
same,"viability, T/C",[28],104%
same,"viability, T/C",[29],86.6%
same,"viability, T/C",[30],70.8%
same,"viability, T/C",[31],98.9%
same,"viability, T/C",[32],79.9%
same,"viability, T/C",[33],97.4%
same,"viability, T/C",[34],82.2%
same,"viability, T/C",[35],79.1%
same,"viability, T/C",[36],65.1%
O=C(Nc1ccc(O)c(NS(=O)(=O)c2ccc(F)cc2)c1)c1ccc(-c2ccccc2)cc1 + Cc1cccc(N(C)C(=O)C2C(O)CCN2c2nc(C)cc(C(F)(F)F)c2C#N)c1,IC50,second compound 0.0316 µM,> 10000 nM
same,IC50,second compound 0.1 µM,> 10000 nM
same,IC50,second compound 0.316 µM,> 10000 nM
same,IC50,second compound 1 µM,> 10000 nM
same,IC50,second compound 3.16 µM,> 10000 nM
same,IC50,second compound 10 µM,> 10000 nM
same,"viability, T/C",[1],112%
same,"viability, T/C",[2],120%
same,"viability, T/C",[3],105%
same,"viability, T/C",[4],106%
same,"viability, T/C",[5],101%
same,"viability, T/C",[6],63.4%
same,"viability, T/C",[7],98.5%
same,"viability, T/C",[8],101%
same,"viability, T/C",[9],100%
same,"viability, T/C",[10],104%
same,"viability, T/C",[11],100%
same,"viability, T/C",[12],62.7%
same,"viability, T/C",[13],109%
same,"viability, T/C",[14],94.3%
same,"viability, T/C",[15],93.3%
same,"viability, T/C",[16],101%
same,"viability, T/C",[17],102%
same,"viability, T/C",[18],66.9%
same,"viability, T/C",[19],115%
same,"viability, T/C",[20],95.5%
same,"viability, T/C",[21],109%
same,"viability, T/C",[22],103%
same,"viability, T/C",[23],103%
same,"viability, T/C",[24],63.3%
same,"viability, T/C",[25],99.2%
same,"viability, T/C",[26],106%
same,"viability, T/C",[27],113%
same,"viability, T/C",[28],99.3%
same,"viability, T/C",[29],94.2%
same,"viability, T/C",[30],71.6%
same,"viability, T/C",[31],98.1%
same,"viability, T/C",[32],106%
same,"viability, T/C",[33],114%
same,"viability, T/C",[34],106%
same,"viability, T/C",[35],95.3%
same,"viability, T/C",[36],61.7%
